Source: patent US9889146B2, “Benzoxaborole compounds and uses thereof” (priority 2012, dated 2018)
In brackets after ≈: the same amount, converted by molar mass. Where two headings read alike, the source gives them in different places.

Key:
Assay type in all cases: cell-based
E. coli = experiment: Inhibition of bacterial growth on agar plates; details: preliminary studies
[1] = tested on: E. coli ATCC 25922 wild type and mutants; experiment: MIC in M9 minimal media; details: Escherichia coli, read-out: MICs in M9 minimal media
Procedure: (§1) Spontaneous Resistance Frequency was determined in vitro for GSK2251052 and the resistance mutants in E. coli ATCC 25922, K. pneumoniae ATCC 13883, and P. aeruginosa ATCC 27853 strains were characterized. GSK2251052 was prepared as described in U.S. Pat. No. 7,816,344 (the entire contents of which are hereby incorporated by reference herein). LB broth, Mueller Hinton II broth (adjusted), and Difco noble agar were obtained from Becton Dickinson (Cockeysville, Md., USA). M9 minimal broth containing 1×M9 salt, 0.5 μg/ML thiamine, 1 mM MgSO4, 0.1 mM CaCl2, 2% glucose, was obtained from Teknova (Hollister, Calif., USA). Antibacterial agents ciprofloxacin, ceftazidime, chloramphenicol, gentamycin, kanamycin, polymixin B, tobramycin and trimethoprim, and amino acids were obtained from Sigma Chemicals (St. Louis, Mo., USA). Strains were obtained from ATCC (Manassas, Va., USA).
(§2) Susceptibility tests were performed following the recommendations for aerobic bacteria (M7-A7) from the Clinical and Laboratories Standards Institute (CLSI).
(§3) The aminoacyl-tRNA synthetase enzyme, LeuRS, ensures the correct amino acid, leucine, is attached to tRNA^Leu. The LeuRS synthetic active site is capable of aminoacylating tRNA^Leu with amino acids structural similar to leucine (norvaline, norleucine, isoleucine and methionine). These mischarged tRNA^Leu are hydrolyzed by the editing domain, thus preventing the deleterious incorporation of incorrect amino acids into the growing polypeptide. The laboratory generated mutants were further tested for their ability to grow in defined media with exogenously added amino acids. Norvaline and norleucine, structurally similar to leucine, were tested in M9 minimal media. […]

[2] = tested on: K. pneumoniae ATCC 13883 wild type and mutants; experiment: MIC in M9 minimal media; details: Klebsiella pneumoniae, read-out: MICs in M9 minimal media
Procedure: as §1, §2, §3

[3] = tested on: P. aeruginosa ATCC 27853 wild type and mutants; experiment: MIC in M9 minimal media; details: Pseudomonas aeruginosa, read-out: MICs in M9 minimal media
Procedure: as §1, §2, §3

[4] = tested on: E. coli isolates from subject E. coli 1; experiment: MIC in M9 minimal media of clinical isolates, subject E. coli 1; details: Escherichia coli
Procedure: The E. coli and P. mirabilis strains were cultured on Trypticase Soy Agar/5% blood plates (Becton Dickinson BBL), in cation adjusted Mueller-Hinton II Broth, or in M9 minimal salts (Becton Dickinson) broth containing 0.4% glucose and 200 uM MgSO4. L-Norvaline (Sigma-Aldrich) was prepared at a concentration of 6.4 mg/ml in […], in a final volume of approx 0.5 ml, and stored at −20° C. until required.
Minimum inhibitory concentrations (MICs) were determined using the CLSI (Clinical and Laboratory Standards Institute, formerly NCCLS) recommended broth microdilution methodology [NCCLS, 2003] using defined media.
Throughout this study E. coli and P. mirabilis strains were cultured on Trypticase Soy Agar/5% blood plates, on M9 salts/1.2% Bacto Agar plates, in Cation Adjusted Mueller-Hinton II Broth (CAMHB), or in M9 Minimal Salt Broth containing 0.4% glucose and 200 μM MgSO4. GSK2251052 and norvaline were prepared at a concentration of 6.4 mg/mL (free base) in 100% DMSO and 100% water respectively, aliquoted in 0.5 mL individual stocks, and stored at −20° C. until required.
Minimum inhibitory concentrations (MICs) were determined for each organism using the CLSI (Clinical and Laboratory Standards Institute) recommended broth microdilution methodology [CLSI, 2009].
Strains tested are detailed in Table 15. MICs for norvaline and GSK2251052 could only be determined for E. coli isolates from subject E. coli 1 (Table 16) as M9 Minimal Media could not sustain growth of E. coli isolates from subject E. coli 2 (isolates 2a-2o) or P. mirabilis isolates (isolates 3a-3c) from subject E. coli 3. […] This phenotype is consistent with a mutation in the editing site of LeuRS, which could also be responsible for the concomitant decrease in susceptibility to GSK2251052 observed in isolates from Days 2, 3 and 4 (Table 16).

[5] = tested on: P. aeruginosa ATCC 27853, E. coli ATCC 25922 and K. pneumoniae ATCC 13883; experiment: MIC in M9 minimal media, three strains summarised; details: all GSK2251052 resistant mutants
Procedure: as §1, §2
The aminoacyl-tRNA synthetase enzyme, LeuRS, ensures the correct amino acid, leucine, is attached to tRNA^Leu. The LeuRS synthetic active site is capable of aminoacylating tRNA^Leu with amino acids structural similar to leucine (norvaline, norleucine, isoleucine and methionine). […]

[6] = tested on: Escherichia coli 1161435 parent and mutant strains B4, B26 and B35; experiment: Sensitivity to leucine analogs in MH and M9 media

CCC[C@H](N)C(=O)O [Norvaline, L-Norvaline]
concentration at which a bacterial lawn could still be observed (E. coli): > 64 µg/mL | MIC ([1]; ATCC25922, E 101(leuRS Y246H)): 4 mg/L (≈ 34.1 µM) | MIC ([1]; ATCC25922, E 102(leuRS D345G)): 0.5 mg/L (≈ 4.27 µM) | MIC ([1]; ATCC25922, E 107(leuRS G229S)): 1 mg/L (≈ 8.54 µM) | MIC ([1]; ATCC25922, E. coli ATCC25922): 32 mg/L (≈ 273 µM) | MIC ([2]; ATCC13883, K 104(leuRS D345Y)): 1 mg/L (≈ 8.54 µM) | MIC ([2]; ATCC13883, K 105(leuRS G229R)): 4 mg/L (≈ 34.1 µM) | MIC ([2]; ATCC13883, K 107(leuRS S227F)): 4 mg/L (≈ 34.1 µM) | MIC ([2]; ATCC13883, K 108(leuRS T248P)): 2 mg/L (≈ 17.1 µM) | MIC ([2]; ATCC13883, K 110(leuRS V338L)): 4 mg/L (≈ 34.1 µM) | MIC ([2]; ATCC13883, Klebsiella pneumoniae ATCC13883): 16 mg/L (≈ 137 µM) | MIC ([3]; ATCC27853, P 101 (leuRS T256P)): 4 mg/L (≈ 34.1 µM) | MIC ([3]; ATCC27853, P 106 (leuRS V342M)): 0.25 mg/L (≈ 2.13 µM) | MIC ([3]; ATCC27853, P 108 (leuRS T252P)): 0.25 mg/L (≈ 2.13 µM) | MIC ([3]; ATCC27853, P. aeruginosa ATCC27853): > 64 mg/L | MIC ([4]; 24 h, Isolate 1a, Blood, Day 1, read-out: MIC in M9 Minimal Media): 4 mg/L (≈ 34.1 µM) | MIC ([4]; 24 h, Isolate 1b, Urine, Day 1, read-out: MIC in M9 Minimal Media): 2 mg/L (≈ 17.1 µM) | MIC ([4]; 24 h, subject E. Coli 1, day 1, first line, no LeuRS change, read-out: Norvaline MIC in M9): 4 mg/L (≈ 34.1 µM) | MIC ([4]; 24 h, subject E. Coli 1, day 1, second line, no LeuRS change, read-out: Norvaline MIC in M9): 2 mg/L (≈ 17.1 µM) | MIC ([4]; 48 h, Isolate 1c, Blood, Day 2, read-out: MIC in M9 Minimal Media): 0.5 mg/L (≈ 4.27 µM) | MIC ([4]; 72 h, read-out: Norvaline MIC in M9): 0.5 mg/L (≈ 4.27 µM) | MIC ([4]; 96 h, Isolate 1e, Blood, Day 4, read-out: MIC in M9 Minimal Media): 0.5 mg/L (≈ 4.27 µM) | MIC ([4]; Isolate 1d, Blood, Day 3, read-out: MIC in M9 Minimal Media): 0.5 mg/L (≈ 4.27 µM) | sensitivity of the resistant mutants [5]: High sensitivity | MIC (sensitivity to leucine analogs) ([6]; 1161435 Parent, M9): > 128 µg/mL | MIC (sensitivity to leucine analogs) ([6]; 1161435 Parent, MH): > 128 µg/mL | MIC (sensitivity to leucine analogs) ([6]; B4 (P339L), M9): 2 µg/mL | MIC (sensitivity to leucine analogs) ([6]; B4 (P339L), MH): > 128 µg/mL | MIC (sensitivity to leucine analogs) ([6]; B26 (R334H), M9): 16 µg/mL | MIC (sensitivity to leucine analogs) ([6]; B26 (R334H), MH): > 128 µg/mL | MIC (sensitivity to leucine analogs) ([6]; B35 (D251N), M9): 64 µg/mL | MIC (sensitivity to leucine analogs) ([6]; B35 (D251N), MH): > 128 µg/mL | sensitivity of the mutants ([6]; mutant strains in M9 minimal media): most sensitivity
